A short description of the assay: Conversion of (R)-P88 and (S)-P88 to iloperidone in human liver S9 fraction in the presence of NAD and NADP. It is filed as in vitro ADME. As to conditions: 13 concentrations 1 to 100 μM, initial rate conditions. On the procedure:
The aim of this study was to evaluate the potential conversion of (R)-P88 and (S)-P88 to iloperidone in human liver S9 fraction in the presence of NAD and NADP. A copy of the final report from this study, entitled, “InVitro Metabolism of (R)-P88 and (S)-P88 in Human Liver S9 Fraction,” (“Final Report”) is attached.
Three concentrations of (R)-P88 and (S)-P88 (1, 10 and 100 μM) were incubated with human liver S9 fractions in the presence of NAD and NADP. Under initial rate conditions, 13 concentrations of (R)-P88 and (S)-P88 (1 to 100 μM) were incubated with human liver S9 fractions to determine the Michaelis-Menten enzyme kinetic constants, Km and Vmax, for the formation of iloperidone.

The source of these data is US10874659B2, “Iloperidone metabolite for use in the treatment of psychiatric disorders” (Vanda Pharmaceuticals, Inc., priority 2012, dated 2020).

Take `COc1cc([C@@H](C)O)ccc1OCCCN1CCC(c2noc3cc(F)ccc23)CC1` [R-P88]: the “Enzyme kinetic behaviour of the conversion to iloperidone (plot shape / best-fit model)” value is “slightly S-shaped direct plot and “hook”-shaped Eadie-Hofstee plot suggesting allosteric interactions”.

With `COc1cc([C@H](C)O)ccc1OCCCN1CCC(c2noc3cc(F)ccc23)CC1` [S-P88], the “Enzyme kinetic behaviour of the conversion to iloperidone (plot shape / best-fit model)” value is on record as “best fit a biphasic saturation enzyme model”.
